We go through three compounds from BindingDB's records for doi:10.1016/j.bmcl.2006.12.028 (Sapienza University of Rome, 2007).

Molecules are shown by their SMILES.

In one assay the target is T1, Histone deacetylase 2b (Zea mays, UniProt Q94F81).
T1 sequence (Q94F81 whole entry): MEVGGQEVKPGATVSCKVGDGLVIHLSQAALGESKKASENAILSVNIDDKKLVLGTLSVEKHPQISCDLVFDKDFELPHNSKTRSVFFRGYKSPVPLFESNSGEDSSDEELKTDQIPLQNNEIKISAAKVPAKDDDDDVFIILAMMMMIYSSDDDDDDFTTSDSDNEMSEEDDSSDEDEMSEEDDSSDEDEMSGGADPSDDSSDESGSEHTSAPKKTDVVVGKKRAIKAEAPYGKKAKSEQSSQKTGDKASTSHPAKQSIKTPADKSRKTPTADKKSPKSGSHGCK
In words: Inhibition of maize HD2 (mean).

The target in a further assay is Histone deacetylase 1 (Mus musculus, UniProt O09106). In words: Inhibition of mouse HDAC1 (mean).
Sequence of Histone deacetylase 1 (O09106 whole entry): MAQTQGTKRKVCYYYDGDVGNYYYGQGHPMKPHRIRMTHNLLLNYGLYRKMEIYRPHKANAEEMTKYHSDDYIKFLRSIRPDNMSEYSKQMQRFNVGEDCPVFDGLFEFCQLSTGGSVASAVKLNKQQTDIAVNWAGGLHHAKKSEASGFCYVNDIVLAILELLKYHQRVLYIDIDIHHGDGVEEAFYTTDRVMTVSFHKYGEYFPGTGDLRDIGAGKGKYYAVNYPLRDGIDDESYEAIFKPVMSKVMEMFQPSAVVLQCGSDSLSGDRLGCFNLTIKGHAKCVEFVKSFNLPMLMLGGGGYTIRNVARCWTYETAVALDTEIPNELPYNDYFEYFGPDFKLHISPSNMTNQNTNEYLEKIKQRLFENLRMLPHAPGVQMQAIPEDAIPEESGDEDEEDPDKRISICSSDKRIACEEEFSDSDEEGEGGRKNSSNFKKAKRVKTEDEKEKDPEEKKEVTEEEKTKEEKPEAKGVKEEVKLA
The next assay deals with Histone deacetylase (Zea mays, UniProt Q9ZTP8). Kind of assay: Inhibition of maize HD1-B (mean).
Sequence of Histone deacetylase (Q9ZTP8 whole entry): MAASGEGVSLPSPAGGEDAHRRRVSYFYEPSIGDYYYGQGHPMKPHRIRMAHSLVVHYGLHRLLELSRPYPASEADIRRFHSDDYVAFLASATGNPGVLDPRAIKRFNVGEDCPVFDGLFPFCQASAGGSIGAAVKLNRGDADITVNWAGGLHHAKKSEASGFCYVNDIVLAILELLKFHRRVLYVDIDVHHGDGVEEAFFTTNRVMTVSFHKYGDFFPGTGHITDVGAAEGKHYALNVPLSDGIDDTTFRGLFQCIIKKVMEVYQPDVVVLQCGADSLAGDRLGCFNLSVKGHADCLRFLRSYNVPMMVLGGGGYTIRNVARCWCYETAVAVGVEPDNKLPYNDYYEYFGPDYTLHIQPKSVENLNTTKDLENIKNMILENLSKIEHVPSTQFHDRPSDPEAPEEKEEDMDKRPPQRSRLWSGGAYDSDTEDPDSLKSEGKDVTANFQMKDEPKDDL
Assay [1] concerns the target Histone deacetylase HD1-A (Zea mays). Kind of assay: Inhibition of maize HD1-A (mean).

Regarding `O=C(CCCCCCC(=O)Nc1ccccc1)NO` [Zolinza], the IC50 on Histone deacetylase 2b is 49.2 nM.
Consider `O=C(CCCCSc1nc(-c2ccc(Cl)cc2)cc(=O)[nH]1)NO`, for which the IC50 at Histone deacetylase 2b was determined as 17 nM; against Histone deacetylase 1, 50.9 nM; against Histone deacetylase it was 11.3 nM; in assay [1], 2.83 nM.
Turning to `O=C(CCCCSc1nc(-c2cccc(Cl)c2)cc(=O)[nH]1)NO`, the IC50 at Histone deacetylase 2b turned out to be 17 nM; at Histone deacetylase 1, 36.7 nM; at Histone deacetylase, 11.3 nM.

What is called IC50 is the point on the concentration scale where inhibition reaches its midpoint. The low end stands for greater potency, the high end for weaker potency.
